Measurements taken from PubChem BioAssay (NCI).
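Five compound concentrations were applied to cells in 96-well plates for 48 hours; endpoints were derived by simple linear interpolation of the resulting dose-response curve. TGI: concentration producing complete growth inhibition.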

How the values were obtained:
Assay in all cases: inhibition of tumour cell growth, NCI panel, 48 h
786-0 renal = test system: 786-0 renal
A498 renal = test system: A498 renal
A549 NSCLC = test system: A549 NSCLC
ACHN renal = test system: ACHN renal
BT-549 breast = test system: BT-549 breast
CAKI-1 renal = test system: CAKI-1 renal
CCRF-CEM leukemia = test system: CCRF-CEM leukemia
COLO 205 colon = test system: COLO 205 colon
DU-145 prostate = test system: DU-145 prostate
EKVX NSCLC = test system: EKVX NSCLC
HCC-2998 colon = test system: HCC-2998 colon
HCT-116 colon = test system: HCT-116 colon
HCT-15 colon = test system: HCT-15 colon
HL-60(TB) leukemia = test system: HL-60(TB) leukemia
HOP-62 NSCLC = test system: HOP-62 NSCLC
HS 578T breast = test system: HS 578T breast
HT29 colon = test system: HT29 colon
IGROV1 ovarian = test system: IGROV1 ovarian
KM12 colon = test system: KM12 colon
LOX IMVI melanoma = test system: LOX IMVI melanoma
M14 melanoma = test system: M14 melanoma
MALME-3M melanoma = test system: MALME-3M melanoma
MCF7 breast = test system: MCF7 breast
MDA-MB-231 breast = test system: MDA-MB-231 breast
MDA-MB-435 = test system: MDA-MB-435
MDA-N = test system: MDA-N
NCI-H226 lung = test system: NCI-H226 lung
NCI-H23 lung = test system: NCI-H23 lung
NCI-H460 lung = test system: NCI-H460 lung
NCI-H522 lung = test system: NCI-H522 lung
NCI/ADR-RES ovarian = test system: NCI/ADR-RES ovarian
OVCAR-3 ovarian = test system: OVCAR-3 ovarian
OVCAR-4 ovarian = test system: OVCAR-4 ovarian
OVCAR-5 ovarian = test system: OVCAR-5 ovarian
OVCAR-8 ovarian = test system: OVCAR-8 ovarian
PC-3 prostate = test system: PC-3 prostate
RPMI-8226 leukemia = test system: RPMI-8226 leukemia
RXF 393 renal = test system: RXF 393 renal
SF-268 CNS = test system: SF-268 CNS
SF-295 CNS = test system: SF-295 CNS
SF-539 CNS = test system: SF-539 CNS
SK-MEL-2 melanoma = test system: SK-MEL-2 melanoma
SK-MEL-28 melanoma = test system: SK-MEL-28 melanoma
SK-MEL-5 melanoma = test system: SK-MEL-5 melanoma
SK-OV-3 ovarian = test system: SK-OV-3 ovarian
SN12C renal = test system: SN12C renal
SNB-75 CNS = test system: SNB-75 CNS
SW-620 colon = test system: SW-620 colon
T-47D breast = test system: T-47D breast
TK-10 renal = test system: TK-10 renal
U251 CNS = test system: U251 CNS
UACC-257 melanoma = test system: UACC-257 melanoma
UACC-62 melanoma = test system: UACC-62 melanoma
UO-31 renal = test system: UO-31 renal
K-562 leukemia = test system: K-562 leukemia
MOLT-4 leukemia = test system: MOLT-4 leukemia
SNB-19 CNS = test system: SNB-19 CNS
SR leukemia = test system: SR leukemia
HOP-92 NSCLC = test system: HOP-92 NSCLC

Measured: TGI

O=C(NCCCNCCCCNCCCNC(=O)C(F)(F)F)C(F)(F)F
40.4 µM: CAKI-1 renal
> 100 µM: 786-0 renal | A498 renal | A549 NSCLC | ACHN renal | BT-549 breast | CCRF-CEM leukemia | COLO 205 colon | DU-145 prostate | EKVX NSCLC | HCC-2998 colon | HCT-116 colon | HCT-15 colon | HL-60(TB) leukemia | HOP-62 NSCLC | HS 578T breast | HT29 colon | IGROV1 ovarian | KM12 colon | LOX IMVI melanoma | M14 melanoma | MALME-3M melanoma | MCF7 breast | MDA-MB-231 breast | MDA-MB-435 | MDA-N | NCI-H226 lung | NCI-H23 lung | NCI-H460 lung | NCI-H522 lung | NCI/ADR-RES ovarian | OVCAR-3 ovarian | OVCAR-4 ovarian | OVCAR-5 ovarian | OVCAR-8 ovarian | PC-3 prostate | RPMI-8226 leukemia | RXF 393 renal | SF-268 CNS | SF-295 CNS | SF-539 CNS | SK-MEL-2 melanoma | SK-MEL-28 melanoma | SK-MEL-5 melanoma | SK-OV-3 ovarian | SN12C renal | SNB-75 CNS | SW-620 colon | T-47D breast | TK-10 renal | U251 CNS | UACC-257 melanoma | UACC-62 melanoma | UO-31 renal

CCNC(=S)N/N=C/c1ccccn1
82.1 µM: A549 NSCLC
27.8 µM: NCI-H460 lung
23.2 µM: HL-60(TB) leukemia
70.7 µM: ACHN renal
32.7 µM: M14 melanoma
58.5 µM: DU-145 prostate
29.7 µM: SF-539 CNS
73.7 µM: HCT-116 colon
26.1 µM: UACC-62 melanoma
87.6 µM: BT-549 breast
54 µM: HOP-62 NSCLC
4.98 µM: OVCAR-4 ovarian
75 µM: U251 CNS
7.56 µM: SF-268 CNS
23.6 µM: UO-31 renal
> 100 µM: 786-0 renal | CCRF-CEM leukemia | COLO 205 colon | EKVX NSCLC | HCT-15 colon | HS 578T breast | HT29 colon | IGROV1 ovarian | K-562 leukemia | KM12 colon | LOX IMVI melanoma | MALME-3M melanoma | MDA-MB-231 breast | MDA-MB-435 | MDA-N | MOLT-4 leukemia | NCI-H522 lung | NCI/ADR-RES ovarian | OVCAR-5 ovarian | OVCAR-8 ovarian | PC-3 prostate | RXF 393 renal | SF-295 CNS | SK-MEL-2 melanoma | SK-MEL-28 melanoma | SK-OV-3 ovarian | SNB-19 CNS | SNB-75 CNS | SR leukemia | SW-620 colon | T-47D breast | TK-10 renal | UACC-257 melanoma
36.8 µM: A498 renal
41 µM: SN12C renal
22 µM: NCI-H226 lung
84.8 µM: NCI-H23 lung
19.9 µM: SK-MEL-5 melanoma

COC(=O)c1sc2ncc3c(c2c1N)CC(C)CC3 (stereo unspecified)
> 100 µM: 786-0 renal | A498 renal | A549 NSCLC | ACHN renal | BT-549 breast | CAKI-1 renal | CCRF-CEM leukemia | COLO 205 colon | DU-145 prostate | EKVX NSCLC | HCC-2998 colon | HCT-116 colon | HCT-15 colon | HOP-62 NSCLC | HOP-92 NSCLC | HT29 colon | IGROV1 ovarian | K-562 leukemia | KM12 colon | LOX IMVI melanoma | M14 melanoma | MALME-3M melanoma | MCF7 breast | MDA-MB-231 breast | MDA-MB-435 | MDA-N | MOLT-4 leukemia | NCI-H226 lung | NCI-H23 lung | NCI-H460 lung | NCI-H522 lung | NCI/ADR-RES ovarian | OVCAR-3 ovarian | OVCAR-4 ovarian | OVCAR-5 ovarian | PC-3 prostate | RPMI-8226 leukemia | RXF 393 renal | SF-268 CNS | SF-295 CNS | SF-539 CNS | SK-MEL-2 melanoma | SK-MEL-28 melanoma | SK-MEL-5 melanoma | SK-OV-3 ovarian | SN12C renal | SNB-19 CNS | SNB-75 CNS | SR leukemia | SW-620 colon | T-47D breast | TK-10 renal | U251 CNS | UACC-257 melanoma | UACC-62 melanoma | UO-31 renal

CCOC(=O)c1[nH]c2nc(SC)nc(NC)c2c1N
> 100 µM: 786-0 renal | A498 renal | A549 NSCLC | ACHN renal | BT-549 breast | CAKI-1 renal | CCRF-CEM leukemia | COLO 205 colon | DU-145 prostate | HCC-2998 colon | HCT-116 colon | HCT-15 colon | HOP-62 NSCLC | HS 578T breast | HT29 colon | IGROV1 ovarian | K-562 leukemia | KM12 colon | LOX IMVI melanoma | M14 melanoma | MALME-3M melanoma | MDA-MB-231 breast | MDA-MB-435 | MDA-N | MOLT-4 leukemia | NCI-H226 lung | NCI-H23 lung | NCI-H460 lung | NCI-H522 lung | NCI/ADR-RES ovarian | OVCAR-3 ovarian | OVCAR-4 ovarian | OVCAR-5 ovarian | OVCAR-8 ovarian | PC-3 prostate | RPMI-8226 leukemia | RXF 393 renal | SF-268 CNS | SF-295 CNS | SK-MEL-2 melanoma | SK-MEL-28 melanoma | SK-MEL-5 melanoma | SK-OV-3 ovarian | SN12C renal | SNB-19 CNS | SNB-75 CNS | SW-620 colon | T-47D breast | TK-10 renal | U251 CNS | UACC-257 melanoma | UACC-62 melanoma | UO-31 renal
